The values below come from the kinase profiling compilation of Christmann-Franck et al. (2016).

Usually pKi stands for −log10 of the Ki, conventionally taken in molar units. The low end stands for a large Ki, the high end for a small Ki.

One assay concerns the target KDR (human) (UniProt P35968). The assay can be described thus: HTRF. A general note: In TR-FRET formats the signal depends on donor and acceptor labels being close together.
The target of a further assay is CHEK2 (human) (UniProt O96017). As to the kind of experiment: Flashplate.
Sequence of CHEK2 (human) (O96017 whole entry, looked up): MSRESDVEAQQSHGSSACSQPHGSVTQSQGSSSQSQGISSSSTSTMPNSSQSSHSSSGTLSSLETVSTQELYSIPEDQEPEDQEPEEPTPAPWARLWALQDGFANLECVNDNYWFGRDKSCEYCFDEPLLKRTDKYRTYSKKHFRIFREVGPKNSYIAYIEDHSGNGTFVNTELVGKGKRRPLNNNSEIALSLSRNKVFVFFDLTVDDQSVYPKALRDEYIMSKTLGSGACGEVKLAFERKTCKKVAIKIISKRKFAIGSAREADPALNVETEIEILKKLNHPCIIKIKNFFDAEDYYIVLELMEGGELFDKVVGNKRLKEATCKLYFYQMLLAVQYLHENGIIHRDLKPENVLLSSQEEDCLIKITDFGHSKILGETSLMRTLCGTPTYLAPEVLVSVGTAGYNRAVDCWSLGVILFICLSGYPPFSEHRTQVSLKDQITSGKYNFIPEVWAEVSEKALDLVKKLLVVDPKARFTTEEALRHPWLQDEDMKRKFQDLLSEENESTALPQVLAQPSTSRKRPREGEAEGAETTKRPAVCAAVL
The target of the next assay is MARK3 (human) (UniProt P27448). The assay can be described thus: Flashplate.
Sequence of MARK3 (human) (P27448 whole entry, looked up): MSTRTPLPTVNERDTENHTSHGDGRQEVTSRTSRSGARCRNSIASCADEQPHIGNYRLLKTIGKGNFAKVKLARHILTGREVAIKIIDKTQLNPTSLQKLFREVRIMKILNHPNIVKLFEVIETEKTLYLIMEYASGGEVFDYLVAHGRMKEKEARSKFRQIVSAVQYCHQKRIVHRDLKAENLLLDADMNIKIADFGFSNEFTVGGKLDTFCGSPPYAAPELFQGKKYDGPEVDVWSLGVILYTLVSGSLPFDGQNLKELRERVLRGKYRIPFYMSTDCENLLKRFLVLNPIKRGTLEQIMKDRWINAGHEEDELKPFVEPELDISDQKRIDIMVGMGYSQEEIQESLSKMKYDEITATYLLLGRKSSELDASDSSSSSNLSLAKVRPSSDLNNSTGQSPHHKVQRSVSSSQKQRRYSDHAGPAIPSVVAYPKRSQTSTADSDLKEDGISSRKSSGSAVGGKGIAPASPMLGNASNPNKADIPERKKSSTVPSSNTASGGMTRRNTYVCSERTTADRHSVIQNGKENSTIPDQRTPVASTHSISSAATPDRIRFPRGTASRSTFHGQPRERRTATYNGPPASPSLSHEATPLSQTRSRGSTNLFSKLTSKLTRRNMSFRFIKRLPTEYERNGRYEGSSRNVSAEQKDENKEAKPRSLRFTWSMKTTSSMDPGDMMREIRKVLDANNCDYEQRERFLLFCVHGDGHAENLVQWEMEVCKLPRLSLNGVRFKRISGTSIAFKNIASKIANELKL
The target in a further assay is SGK1 (human) (UniProt O00141). As to the kind of experiment: Flashplate.
Sequence of SGK1 (human) (O00141 whole entry, looked up): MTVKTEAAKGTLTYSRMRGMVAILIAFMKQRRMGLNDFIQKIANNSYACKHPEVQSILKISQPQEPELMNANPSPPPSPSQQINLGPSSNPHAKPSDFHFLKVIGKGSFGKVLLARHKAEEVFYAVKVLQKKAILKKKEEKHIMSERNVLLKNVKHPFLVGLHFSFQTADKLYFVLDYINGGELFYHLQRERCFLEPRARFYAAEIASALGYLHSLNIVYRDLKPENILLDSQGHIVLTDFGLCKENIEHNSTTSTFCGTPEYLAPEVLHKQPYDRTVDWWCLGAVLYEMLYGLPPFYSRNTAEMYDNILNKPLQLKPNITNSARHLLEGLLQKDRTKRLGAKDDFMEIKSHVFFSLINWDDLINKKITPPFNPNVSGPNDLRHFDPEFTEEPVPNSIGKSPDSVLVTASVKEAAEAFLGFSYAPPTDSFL
A further assay concerns the target PLK3 (human) (UniProt Q9H4B4). As to the kind of experiment: Flashplate.
For the next assay, the target named is CDK5 (human) (UniProt Q00535). As to the kind of experiment: Flashplate.
Sequence of CDK5 (human) (Q00535 whole entry, looked up): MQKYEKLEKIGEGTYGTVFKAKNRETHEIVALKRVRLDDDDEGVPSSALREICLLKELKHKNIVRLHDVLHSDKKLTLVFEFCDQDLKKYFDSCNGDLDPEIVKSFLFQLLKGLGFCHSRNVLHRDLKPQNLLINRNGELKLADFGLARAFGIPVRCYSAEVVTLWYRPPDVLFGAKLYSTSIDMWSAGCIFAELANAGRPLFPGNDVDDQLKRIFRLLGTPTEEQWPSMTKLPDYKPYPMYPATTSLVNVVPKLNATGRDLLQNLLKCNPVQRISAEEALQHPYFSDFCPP
For another assay, the target named is DYRK1A (human) (UniProt Q13627). The assay can be described thus: Flashplate.

SMILES strings stand for the structures. pKi: −log10 of the molar value.

Sequence of PLK3 (human) (Q9H4B4 whole entry, looked up): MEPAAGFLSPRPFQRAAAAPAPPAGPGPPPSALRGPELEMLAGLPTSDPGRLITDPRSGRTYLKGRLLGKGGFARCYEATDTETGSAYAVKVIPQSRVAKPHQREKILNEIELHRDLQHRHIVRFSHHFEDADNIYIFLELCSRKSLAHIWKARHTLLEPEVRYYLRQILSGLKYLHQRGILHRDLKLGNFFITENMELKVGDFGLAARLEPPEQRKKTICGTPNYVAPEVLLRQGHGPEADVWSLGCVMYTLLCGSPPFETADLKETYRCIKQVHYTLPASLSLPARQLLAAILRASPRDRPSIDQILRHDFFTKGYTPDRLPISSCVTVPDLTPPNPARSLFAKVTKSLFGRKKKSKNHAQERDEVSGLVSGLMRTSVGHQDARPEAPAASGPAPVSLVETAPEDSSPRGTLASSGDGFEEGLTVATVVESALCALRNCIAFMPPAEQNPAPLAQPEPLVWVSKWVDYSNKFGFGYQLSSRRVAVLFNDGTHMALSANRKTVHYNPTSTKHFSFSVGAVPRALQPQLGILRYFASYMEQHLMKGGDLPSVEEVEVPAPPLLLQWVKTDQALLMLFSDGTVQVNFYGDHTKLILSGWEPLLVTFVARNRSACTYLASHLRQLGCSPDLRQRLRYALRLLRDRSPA
Sequence of KDR (human) (P35968 whole entry, looked up): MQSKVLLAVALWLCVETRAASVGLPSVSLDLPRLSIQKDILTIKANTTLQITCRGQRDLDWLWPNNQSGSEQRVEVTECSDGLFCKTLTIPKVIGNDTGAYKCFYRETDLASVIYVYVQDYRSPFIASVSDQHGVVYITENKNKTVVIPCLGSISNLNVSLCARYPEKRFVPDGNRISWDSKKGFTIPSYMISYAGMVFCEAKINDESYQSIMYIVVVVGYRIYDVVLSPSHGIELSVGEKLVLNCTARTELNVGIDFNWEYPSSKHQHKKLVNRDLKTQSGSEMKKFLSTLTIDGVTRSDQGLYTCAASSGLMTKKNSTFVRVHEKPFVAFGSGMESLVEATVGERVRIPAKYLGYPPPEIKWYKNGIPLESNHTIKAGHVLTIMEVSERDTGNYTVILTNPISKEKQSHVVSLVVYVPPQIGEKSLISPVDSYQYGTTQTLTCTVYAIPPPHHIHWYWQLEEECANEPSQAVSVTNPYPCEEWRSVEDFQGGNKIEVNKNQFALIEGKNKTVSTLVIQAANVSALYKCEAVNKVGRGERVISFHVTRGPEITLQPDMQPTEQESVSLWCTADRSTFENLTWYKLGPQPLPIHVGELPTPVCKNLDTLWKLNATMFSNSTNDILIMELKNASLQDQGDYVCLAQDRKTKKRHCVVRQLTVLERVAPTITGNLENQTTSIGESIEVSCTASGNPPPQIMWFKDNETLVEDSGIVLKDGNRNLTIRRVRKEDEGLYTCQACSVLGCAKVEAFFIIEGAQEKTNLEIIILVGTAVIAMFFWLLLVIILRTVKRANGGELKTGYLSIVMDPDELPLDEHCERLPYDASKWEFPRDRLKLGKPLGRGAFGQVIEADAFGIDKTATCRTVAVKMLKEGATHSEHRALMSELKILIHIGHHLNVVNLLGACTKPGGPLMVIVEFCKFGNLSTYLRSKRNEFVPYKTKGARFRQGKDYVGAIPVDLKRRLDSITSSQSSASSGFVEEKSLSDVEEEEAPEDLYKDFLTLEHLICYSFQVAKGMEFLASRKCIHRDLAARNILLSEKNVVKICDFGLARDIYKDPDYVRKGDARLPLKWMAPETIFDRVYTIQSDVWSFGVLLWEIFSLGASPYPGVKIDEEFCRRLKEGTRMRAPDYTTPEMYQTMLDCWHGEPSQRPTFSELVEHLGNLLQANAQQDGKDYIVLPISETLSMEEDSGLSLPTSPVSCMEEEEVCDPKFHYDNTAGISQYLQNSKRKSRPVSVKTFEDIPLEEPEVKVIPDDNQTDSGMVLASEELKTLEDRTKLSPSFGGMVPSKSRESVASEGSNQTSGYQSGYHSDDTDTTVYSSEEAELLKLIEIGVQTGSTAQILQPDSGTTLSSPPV

Take `CCn1c(=O)/c(=C\Nc2ccccc2)s/c1=C(/C#N)C(=O)O`: the pKi at KDR (human), on CHEK2 (human), on MARK3 (human) and on SGK1 (human) was 5.40 throughout.
Take `COc1cc2ncn(-c3cc(OCc4ccccc4C(F)(F)F)c(C(N)=O)s3)c2cc1OC`: the negative logarithm of the Ki (pKi) on PLK3 (human) is 8.10; on SGK1 (human), less than 5.00.
On to `O=C(O)c1ccccc1Nc1ncnc(Nc2ccc3cn[nH]c3c2)n1`, for which the pKi on CDK5 (human) and on DYRK1A (human) was 6.60 in each case.
